SMILES strings stand for the structures. Like-named read-outs stand apart in the source and are kept apart here.

By AC50 is commonly meant the concentration giving half of the maximal activity seen. As usually defined, the IC50 is the midpoint of a concentration-inhibition curve.

Holding throughout (type): cell-based, human
Experiment [1] deals with HTT mRNA. Kind of experiment: Splicing RT-qPCR assay, HTT canonical (CJ) and alternative (AJ) junction mRNA. As to conditions: A673 or K562 cells, 24 hours compound treatment; for AC50: read-out: HTT AJ (AC50, increase in alternative junction mRNA); for IC50: read-out: HTT CJ (IC50, decrease in canonical junction mRNA). In a few lines: (§1)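 Read-out is the abundance of canonical-junction versus new alternative-exon-junction mRNA, determined by real-time qPCR after cDNA synthesis and normalized to a housekeeping gene. It is measured in A673 or K562 cells exposed to compounds for 24 h, top dose 10 uM.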
Background: Quantitative PCR measures a nucleic acid by following its amplification.

Experiment [2] has as its system MYB mRNA. Kind of experiment: Splicing RT-qPCR assay, MYB canonical (CJ) and alternative (AJ) junction mRNA. Conditions: for AC50: read-out: MYB AJ (AC50, increase in alternative junction mRNA). In a few lines:
as §1

The subject of experiment [3] is SMN2 mRNA. Kind of experiment: Splicing RT-qPCR gene panel, SMN2 canonical junction (CJ) mRNA. As to conditions: Tables 4A/4B, read-out: SMN2 (IC50, decrease in CJ mRNA, gene panel). The gist of the method: (§2)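 Canonical-junction mRNA levels were quantified by RT-qPCR in lysates, using ΔΔCt against a housekeeping gene (GAPDH, GUSB or PPIA) and DMSO wells, expressed as percentage response. Cells (A673 or K562) had been exposed for 24 h at 37° C. to 11 three-fold compound concentrations up to 10 uM, DMSO ≤0.25%.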

Experiment [4] concerns Target C mRNA. Kind of experiment: Splicing RT-qPCR gene panel, Target C canonical junction (CJ) mRNA. As to conditions: Tables 4A/4B, read-out: Target C (IC50, decrease in CJ mRNA, gene panel). In a few lines: as §2
For experiment [5], the system named is HTT mRNA. In words: Splicing RT-qPCR gene panel, HTT canonical junction (CJ) mRNA. As to conditions: Tables 4A/4B, read-out: HTT (IC50, decrease in CJ mRNA, gene panel). The gist of the method: as §2
The mark [6] stands for this setting: A673 or K562 cells, 24 hours compound treatment, RT-qPCR.
Setting [7] is: A673 or K562 cells, 24 hours compound treatment, RT-qPCR, read-out: MYB CJ (IC50, decrease in canonical junction mRNA).
Setting [8] is: Homo sapiens, 24 h, A673 or K562 cells, 24 hours compound treatment, RT-qPCR.
The mark [9] stands for this setting: Homo sapiens, 24 h, A673 or K562 cells, 24 hours compound treatment, RT-qPCR, read-out: MYB CJ (IC50, decrease in canonical junction mRNA).
[10] abbreviates: Homo sapiens, Tables 4A/4B, canonical junction qPCR panel, read-out: MYB (IC50, decrease in CJ mRNA, gene panel).

On to `Cc1cn2cc(NC(=O)c3ccc(N4CCNCC4)c4cn(C)nc34)c(C#N)cc2n1` [Compound 452, N-{7-cyano-2-methylimidazo[1,2-a]pyridin-6-yl}-2-methyl-4-(piperazin-1-yl) indazole-7-carboxamide], for which the AC50 was > 10 µM in experiment [1] and 1 to 10 µM in experiment [2] (setting [6]). In addition, the IC50 is > 10 µM in experiment [1]; 1 to 10 µM in experiment [2] (setting [7]); 1 to 10 µM in experiment [2] (Tables 4A/4B, canonical junction qPCR panel, read-out: MYB (IC50, decrease in CJ mRNA, gene panel)); 0.1 to 1 µM in experiment [3]; > 10 µM in experiment [4]; > 10 µM in experiment [5].

For the compound `CCn1cc2c(N3CCNC(CF)C3)ccc(C(=O)Nc3cc(F)c4nc(C)cn4c3)c2n1` (stereo not shown) [Compound 453, 2-ethyl-N-{8-fluoro-2-methylimidazo[1,2-a]pyridin-6-yl}-4-[3-(fluoromethyl)piperazin-1-yl]indazole-7-carboxamide], the 50% inhibitory concentration (IC50) in experiment [1] (Homo sapiens, 24 h) was > 10 µM; in experiment [2] (setting [9]), 1 to 10 µM; in experiment [2] (setting [10]), 1 to 10 µM; in experiment [3] (Homo sapiens), 0.1 to 1 µM; in experiment [4] (Homo sapiens) it was > 10 µM; in experiment [5] (Homo sapiens) it was > 10 µM. The AC50 in experiment [1] (Homo sapiens) is > 10 µM; in experiment [2] (setting [8]), 1 to 10 µM.

For `CCn1cc2c(C3OCC(C)(N)CO3)ccc(C(=O)Nc3cc(F)c4nc(C)cn4c3)c2n1` (stereo not shown) [Compound 454, 4-(5-amino-5-methyl-1,3-dioxan-2-yl)-2-ethyl-N-{8-fluoro-2-methylimidazo[1,2-a]pyridin-6-yl}indazole-7-carboxamide], the 50% inhibitory concentration (IC50) in experiment [1] (Homo sapiens, 24 h) was 1 to 10 µM; in experiment [2] (setting [9]), 0.1 to 1 µM; in experiment [2] (setting [10]), 1 to 10 µM; in experiment [3] (Homo sapiens) it was < 0.1 µM; in experiment [4] (Homo sapiens), > 10 µM; in experiment [5] (Homo sapiens), > 10 µM. Moreover, the half-maximal activity concentration (AC50) in experiment [1] (Homo sapiens) and in experiment [2] (setting [8]) was 1 to 10 µM throughout.

For `CCn1cc2c(C3OCC(N)CO3)ccc(C(=O)Nc3cc(F)c4nc(C)cn4c3)c2n1` (stereo not shown) [Compound 455, 4-(5-amino-1,3-dioxan-2-yl)-2-ethyl-N-{8-fluoro-2-methylimidazo[1,2-a]pyridin-6-yl}indazole-7-carboxamide], the half-maximal inhibitory concentration (IC50) in experiment [1] (Homo sapiens, 24 h) is > 10 µM; in experiment [2] (setting [9]), > 10 µM; in experiment [2] (setting [10]), 0.1 to 1 µM; in experiment [3] (Homo sapiens) it was 0.1 to 1 µM; in experiment [4] (Homo sapiens) it was 1 to 10 µM; in experiment [5] (Homo sapiens), 1 to 10 µM. In addition, the AC50 in experiment [1] (Homo sapiens) and in experiment [2] (setting [8]) was > 10 µM throughout.

On to `COc1c(NC(=O)c2ccc(N3CCNCC3)c3cn(C)nc23)cc(C)c2nn(C)cc12` [Compound 456], for which the IC50 was > 10 µM in experiment [1] (Homo sapiens, 24 h); > 10 µM in experiment [2] (setting [9]); > 10 µM in experiment [2] (setting [10]); > 10 µM in experiment [3] (Homo sapiens); > 10 µM in experiment [4] (Homo sapiens); > 10 µM in experiment [5] (Homo sapiens). Also, the AC50 was > 10 µM in experiment [1] (Homo sapiens) and 1 to 10 µM in experiment [2] (setting [8]).

On to `Cc1cn2c(n1)CCC(NC(=O)c1ccc(N3CCNCC3)c3cn(C)nc13)C2` (stereo not shown) [Compound 457, 2-methyl-N-{2-methyl-5H,6H,7H,8H-imidazo[1,2-a]pyridin-6-yl}-4-(piperazin-1-yl) indazole-7-carboxamide], for which the IC50 in experiment [1] (Homo sapiens, 24 h) is > 10 µM; in experiment [2] (setting [9]) it was > 10 µM; in experiment [2] (setting [10]), > 10 µM; in experiment [3] (Homo sapiens) it was > 10 µM; in experiment [4] (Homo sapiens) it was > 10 µM; in experiment [5] (Homo sapiens), > 10 µM. Further, the AC50 in experiment [1] (Homo sapiens) and in experiment [2] (setting [8]) was > 10 µM each time.

With `Cc1nc2c(F)cc(NC(=O)c3ccc(N4CCNCC4)c4cn(C)nc34)cn2c1C` [Compound 458, N-{8-fluoro-2,3-dimethylimidazo[1,2-a]pyridin-6-yl}-2-methyl-4-(piperazin-1-yl) indazole-7-carboxamide], the IC50 is < 0.1 µM in experiment [1] (Homo sapiens, 24 h); < 0.1 µM in experiment [2] (setting [9]); > 10 µM in experiment [2] (setting [10]); > 10 µM in experiment [3] (Homo sapiens); > 10 µM in experiment [4] (Homo sapiens); > 10 µM in experiment [5] (Homo sapiens). The values for the AC50 in experiment [1] (Homo sapiens) and in experiment [2] (setting [8]) were 0.1 to 1 µM and < 0.1 µM, respectively.

As for `CCNC1CCN(c2ccc(C(=O)Nc3cn4cc(C)nc4c(F)c3OC)c3nn(C)cc23)CC1` [Compound 459, 4-[4-(ethylamino)piperidin-1-yl]-N-{8-fluoro-7-methoxy-2-methylimidazo [1,2-a]pyridin-6-yl}-2-methylindazole-7-carboxamide], the IC50 in experiment [1] (Homo sapiens, 24 h) is 0.1 to 1 µM; in experiment [2] (setting [9]), < 0.1 µM; in experiment [2] (setting [10]), < 0.1 µM; in experiment [3] (Homo sapiens), < 0.1 µM; in experiment [4] (Homo sapiens) it was 1 to 10 µM; in experiment [5] (Homo sapiens), < 0.1 µM. In addition, the AC50 in experiment [1] (Homo sapiens) is 0.1 to 1 µM; in experiment [2] (setting [8]), < 0.1 µM.

For the compound `CCNC1CCN(c2cc(F)c(C(=O)Nc3cc(F)c4nc(C)cn4c3)c3nn(C)cc23)CC1` [Compound 460], the IC50 in experiment [1] (Homo sapiens, 24 h) is < 0.1 µM; in experiment [2] (setting [9]) it was < 0.1 µM; in experiment [2] (setting [10]), < 0.1 µM; in experiment [3] (Homo sapiens) it was < 0.1 µM; in experiment [4] (Homo sapiens), 0.1 to 1 µM; in experiment [5] (Homo sapiens), 0.1 to 1 µM. In addition, the concentration at half-maximal activity (AC50) is 0.1 to 1 µM in experiment [1] (Homo sapiens) and < 0.1 µM in experiment [2] (setting [8]).

On to `Cc1cn2cc(NC(=O)c3ccc(N4CC[C@@H](NC5(CF)CC5)C4)c4cn(C)nc34)cc(F)c2n1` [Compound 461, N-{8-fluoro-2-methylimidazo[1,2-a]pyridin-6-yl}-4-[(3R)-3-{[1-(fluoromethyl)cyclopropyl]amino}pyrrolidin-1-yl]-2-methylindazole-7-carboxamide], for which the IC50 in experiment [1] (Homo sapiens, 24 h) was 1 to 10 µM; in experiment [2] (setting [9]), < 0.1 µM; in experiment [2] (setting [10]), < 0.1 µM; in experiment [3] (Homo sapiens) it was < 0.1 µM; in experiment [4] (Homo sapiens) it was > 10 µM; in experiment [5] (Homo sapiens), 1 to 10 µM. The AC50 is > 10 µM in experiment [1] (Homo sapiens) and 0.1 to 1 µM in experiment [2] (setting [8]).

For `Cc1nc2c(F)cc(NC(=O)c3ccc(N4CCNCC4)c4cn(C)nc34)cn2n1` [Compound 462, N-{8-fluoro-2-methyl-[1,2,4]triazolo[1,5-a]pyridin-6-yl}-2-methyl-4-(piperazin-1-yl) indazole-7-carboxamide], the concentration for half-maximal inhibition (IC50) in experiment [1] (Homo sapiens, 24 h) was 0.1 to 1 µM; in experiment [2] (setting [9]), < 0.1 µM; in experiment [2] (setting [10]), < 0.1 µM; in experiment [3] (Homo sapiens) it was < 0.1 µM; in experiment [4] (Homo sapiens) it was > 10 µM; in experiment [5] (Homo sapiens), 0.1 to 1 µM. For the same compound, the AC50 in experiment [1] (Homo sapiens) was 0.1 to 1 µM; in experiment [2] (setting [8]), < 0.1 µM.

In the case of `CCn1cc2c(N3CC[C@@H](NC)C3)ccc(C(=O)Nc3cc(F)c4nc(C)cn4c3)c2n1` [Compound 469, (R)-2-ethyl-N-(8-fluoro-2-methylimidazo[1,2-a]pyridin-6-yl)-4-(3-(methylamino)pyrrolidin-1-yl)-2H-indazole-7-carboxamide], the concentration at half-maximal activity (AC50) in experiment [1] and in experiment [2] (setting [6]) was > 10 µM in each case. In addition, the IC50 in experiment [1], in experiment [2] (setting [7]), in experiment [2] (setting [10]), in experiment [3] (Homo sapiens), in experiment [4] (Homo sapiens) and in experiment [5] (Homo sapiens) was > 10 µM throughout.

In the case of `Cc1nnc2n1CC(NC(=O)c1ccc(N3CCNCC3)c3cn(C)nc13)CC2` (stereo not shown) [Compound 470, 2-methyl-N-{3-methyl-5H,6H,7H,8H-[1,2,4]triazolo[4,3-a]pyridin-6-yl}-4-(piperazin-1-yl) indazole-7-carboxamide], the IC50 in experiment [1] (Homo sapiens, 24 h) was > 10 µM; in experiment [2] (setting [9]), > 10 µM; in experiment [2] (setting [10]) it was > 10 µM; in experiment [3] (Homo sapiens), > 10 µM; in experiment [4] (Homo sapiens) it was > 10 µM; in experiment [5] (Homo sapiens) it was > 10 µM. Also, the half-maximal activity concentration (AC50) in experiment [1] (Homo sapiens) and in experiment [2] (setting [8]) was > 10 µM in each case.

As for `CCn1cc2c(N3CC[C@H](N(C)C)C3)cc(F)c(C(=O)Nc3cc(F)c4nc(C)cn4c3)c2n1` [Compound 472, 4-[(3S)-3-(dimethylamino)pyrrolidin-1-yl]-2-ethyl-6-fluoro-N-{8-fluoro-2-methylimidazo[1,2-a]pyridin-6-yl}indazole-7-carboxamide], the IC50 is > 10 µM in experiment [1] (Homo sapiens, 24 h); < 0.1 µM in experiment [2] (setting [9]); < 0.1 µM in experiment [2] (setting [10]); < 0.1 µM in experiment [3] (Homo sapiens); > 10 µM in experiment [4] (Homo sapiens); > 10 µM in experiment [5] (Homo sapiens). Also, the AC50 in experiment [1] (Homo sapiens) was 1 to 10 µM; in experiment [2] (setting [8]), < 0.1 µM.

These data come from patent US20250154169A1, “COMPOUNDS AND METHODS FOR MODULATING SPLICING” (REMIX THERAPEUTICS INC., priority 2021, published 2025).
